Measured values published in patent US5278045A, “Method and compositions to screen compounds for enhancement of the cholinergic, dopaminergic and serotonergic function” (Du Pont Merck Pharmaceutical Company, priority 1990, dated 1994).

Experiments:
[1] = system: Detergent Solubilized Rat Brain Membrane Proteins; test: Specific [^3 H]DuP 996 binding to detergent solubilized rat brain membrane proteins; details: 10 nM tritiated DuP 996
Procedure: […] The mixture was centrifuged at 47,000×g for 20 minutes. The supernatant containing the solubilized protein was collected. The supernatant from centrifugation of brain membranes without detergent was used as the control.
Fifty μl aliquots of the solubilized membrane protein were incubated with 0.2 ml of 50 mM Tris-HCl, pH 7.4, with 0.1% bovine serum albumin, and 10 nM tritiated DuP 996 in a total volume of 0.325 ml. Nonspecific binding was determined in the presence of 10 μM DuP 996. After 1 hour of incubation at 25° C., 0.5 ml of ice-cold 0.1M sodium phosphate buffer, pH 7.4, with 0.1% bovine gamma globulin was added. The sample was put on ice and then 0.5 ml of 25% (w/v) polyethylene glycol 8000 was added and mixed. The sample was put on ice for 10 to 15 minutes and filtered through Whatman GF/B filters which had been presoaked in 0.2% polyethylenimine. The filtered sample was washed twice with 3 ml each of ice cold 8% polyethylene glycol 8000 in 100 mM Tris-HCl, pH 7.4. Bound radioactivity retained on the filters was counted in a liquid scintillation counter.

DuP 996 binding protein [2] = test: Radioreceptor screening assay (displacement of tritiated DuP 996); set-up: species or system rat; details: inhibition of binding of 10 nM tritiated DuP 996, pH 7.4, 25° C., 60 minutes
Procedure: Male Sprague-Dawley rats (Charles River Breeding Laboratories) at 200-250 g were euthanatized by decapitation. Rat brain regions were dissected according to Heffner et al., Pharmacol. Biochem. Behav., 13, 453 (1980). Brain membranes were prepared by the method of Tam, Proc. Natl. Acad. Sci. USA, 80, 6703 (1983). The brain tissues were homogenized (20 sec) in 10 vol (wt/vol) of ice-cold 0.32M sucrose with a Brinkman Polytron (setting 8). The homogenate was centrifuged at 920×g for 10 min at 4° C. The supernatant was centrifuged at 47,000×g for 20 min. The resulting membrane pellet was resuspended in 10 vol (original wt/vol) of 50 mM Tris-HCl (pH 7.4) and incubated at 37° C. for 30 min to degrade and dissociate bound endogenous ligands. The membranes were then centrifuged at 47,000×g for 20 min and resuspended in 50 mM Tris-HCl.
Compounds to be screened were incubated with brain membranes. (1-2 mg protein) in 50 mM Tris-HCl buffer, pH 7.4, for 10 minutes in 25° C. Then 10 nM tritiated DuP 996 or its active structural analogs were added and incubated at 25° C. for 60 minutes. The samples were filtered on Whatman GF/B glass filters which had been soaked in 0.2% polyethylenimine and washed 3 times each with 5 ml of ice-cold Tris buffer. Nonspecific binding was determined by performing binding in the presence of 10 μM DuP 996. The control represents specific binding in the absence of compounds to be screened. Screened compounds which inhibited the specific binding of tritiated DuP 996 or analogs to its binding protein should be active in binding to the same protein. This is illustrated further in Example 4, Part B.

DuP 996 binding protein [3] = test: Trypsin pretreatment, binding of tritiated DuP 996; set-up: species or system rat; details: 0.1-100 μg/ml trypsin, 25° C., 10 min
Procedure: (§1) One ml aliquots of brain membranes (1-2 mg of protein) in 50 mM Tris-HCl buffer, pH 7.4, were incubated with 0.1-100 μg/ml of trypsin (17,000 BAEE units/mg protein) at 25° C. for 10 min. 10 nM of tritiated DuP 996 was added and incubated for 45 min at 25° C. for ten minutes. Samples were filtered on Whatman GF/B filters which had been presoaked in 0.2% polyethylenimine under negative pressure and washed 3 times with ice-cold buffer. Nonspecific binding was determined in the presence of 10 μM DuP 996.

DuP 996 binding protein [4] = test: Phospholipase C pretreatment, binding of tritiated DuP 996; set-up: species or system rat; details: 5-50 μg/ml phospholipase C, 10 min, 37° C.
Procedure: as §1, with “5-50” for “0.1-100”, “phospholipase C” for “trypsin (17,000 BAEE units/mg protein) at 25° C.”, “min at 37° C.” for “min.”, “C.” for “C. for ten minutes.”

Alzheimer's patients = details: clinical trials with cholinesterase inhibitors, literature; cited from earlier work
ACh release = test: Neurotransmitter release assay: stimulated ACh release from brain slices; set-up: species or system rat; details: concentration to enhance stimulated release of ACh by 100% (2-fold) over control, from dose response curves
Procedure: Male Wistar rats weighing 175-200 g were euthanatized and the brains were dissected out immediately. Slices (0.3 mm thick) from the parietal cortex were prepared manually by using a recessed Lucite® guide. Slices (1.5 mm thick) from the hippocampus and the caudate nucleus were prepared by using a slotted brain holder. All slices were subsequently cut into 0.25×0.25 mm squares with a McIlwain tissue chopper.
Labeling of transmitter stores in slices was prepared by the following methods. For ACh release, slices (approximately 100 mg wet weight) were incubated in 10 ml Krebs-Ringer (KR) medium containing (mM): NaCl(116), KCl(3), CaCl2 (1.3), MgCl2 (1.2), KH2 PO4 (1.2), Na2 SO4 (1.2), NaHCO3 (25) and glucose(11), to which 10 μCi ^3 H-choline (specific activity approx. 80 Ci/mmol: NEN) and 10 nmol unlabeled choline had been added to give a final concentration of 10^-6 M. Incubation was carried out for 30 min at 37° C. under a steady flow of 95% O2 /5% CO2. Under these conditions, part of the radioactive choline taken up is converted into radioactive ACh by cholinergic nerve endings, stored in synaptic vesicles, and released upon depolarization by high-K^+ -containing medium [Molenaar et al., 1973a]. For dopamine (DA), serotonin (5-HT), and norepinephrine (NE) release, slices (approximately 100 mg wet weight) were incubated in KR medium containing 0.01 mM nialamide at 37° C. under a steady flow of 95% O2 /5% CO2. The MAO-inhibitor nialamide was added to the medium in order to inhibit metabolism to the monoamines. Incubation was for 30 min in 10 ml of KR medium to which 10 μCi ^3 H-dopamine, ^3 H-norepinephrine, or ^3 H-5-hydroxytryptamine (specific activity 30, 45, and 78 Ci/mmol, respectively: all from NEN) had been added.
Separate experiments were performed for the release of each neurotransmitter. After labeling of the transmitter stores, the slices were washed three times with non-radioactive KR medium and transferred to a superfusion apparatus to measure the drug effects on transmitter release [Schoemaker et al., Psychopharmacology 74, 137 (1981)]. The superfusion apparatus consisted of 10 thermo-jacketed glass columns of 5 mm diameter which were provided with GF/F glass fiber filters to support the brain slices (approximately 10 mg tissue/column). Superfusion was carried out with KR medium at a rate of 0.3 ml/min. For ACh release, 10^-5 M hemicholinium-3 was added to the medium to prevent the uptake of choline formed during superfusion from phospholipids and released ACh, so that it could not be subsequently converted into newly synthesized ACh, which would be released in preference to the pre-formed, labeled ACh. The medium was delivered by a 25-channel peristaltic pump (Ismatec; Brinkman) and maintained at 37° C. by a thermostated stainless-steel heating coil before entering the superfusion column. Each column was provided with a four-way slider valve (Beckman Instruments) which allowed rapid change of low-to-high-K^+ -KR-medium and with two 10-channel, 3-way valves which were used to change form drug-free to drug-containing low- and high-K^+ -KR media.
After 15 min washout of non-specifically bound radioactivity during superfusion, the collection of fractions of 4 min (1.2 ml) each was started. After 3×4 min, the KR medium was changed to a KR medium with 25 mM KCl (ACh, 5-HT release) or 12.5 mM KCl (DA release) (high K^+ -KR medium; S1). Depolarization-induced stimulation of release by high-K^+ -KR medium was then substituted by drug- or vehicle-containing low- and high-K^+ -KR medium and superfusion continued for 3×4 min with low-K^+ -KR medium, for 1×4 min with high-K^+ -KR medium (S2), and for 2×4 min with low-K^+ -KR medium.
Compounds were added to the medium by 100-fold dilution of appropriate stock solutions (in 0.9% NaCl/H2 O) with either low- or high-K^+ -KR medium.
All superfusion fractions were collected in liquid scintillation counting vials.

SMILES | SPECIFIC BINDING ([1]; CHAPS, 20 mM) [dpm] | SPECIFIC BINDING ([1]; NP40) [dpm] | SPECIFIC BINDING ([1]; Octyl glucoside, 0.4%) [dpm] | SPECIFIC BINDING ([1]; Triton X-100, 1%) [dpm] | SPECIFIC BINDING ([1]; Tween 80, 1%) [dpm] | IC50 (DuP 996 binding protein [2]) [nM] | tritiated DuP 996 binding activity after trypsin preincubation (DuP 996 binding protein [3]) | DuP 996 binding activity after preincubation with phospholipase C (DuP 996 binding protein [4]) | cognitive measures in Alzheimer's patients (Alzheimer's patients) | ACh Release EC100 (ACh release)
O=C1N(c2ccccc2)c2ccccc2C1(Cc1ccncc1)Cc1ccncc1 [Compound 7, 3,3-Bis(4-pyridinylmethyl)-1-phenylindolin-2-one] | 868 | 348 | 511 | 0 | 134 | 56 | loss of tritiated DuP 996 binding activity | no effect on the DuP 996 binding activity |  | 
CNC(=O)Oc1ccc2c(c1)[C@]1(C)CCN(C)[C@@H]1N2C [physostigmine] |  |  |  |  |  |  |  |  | limited improvement in cognitive measures | 
O=C1N2c3ccccc3CCc3cccc(c32)C1(Cc1ccncc1)Cc1ccncc1 [Compound 5, 2,2-Bis(4-pyridinylmethyl)-6,7-dihydro-indole(1,7-AB)(1)-benzapin-1(2H)-one] |  |  |  |  |  | 46 |  |  |  | 2,500 nM
